In ChEMBL document CHEMBL1150788, “In vitro susceptibility of Sporothrix schenckii to six antifungal agents determined using three different methods” (2007):

Legend:
Format in all cases: functional
Sporothrix schenckii [1] = assay: Antifungal activity against Sporothrix schenckii PGAC0016 isolate from cutaneous-lymphatic sporotrichosis patient after 72 hrs by ATB Fungus 2 method
Sporothrix schenckii [2] = assay: Antifungal activity against Sporothrix schenckii P26187 isolate from cutaneous-lymphatic sporotrichosis patient after 72 hrs by modified NCCLS M38-A method
Sporothrix schenckii [3] = assay: Antifungal activity against Sporothrix schenckii P30019 isolate from cutaneous-lymphatic sporotrichosis patient after 72 hrs by Sensititre YeastOne method
Sporothrix schenckii [4] = assay: Antifungal activity against Sporothrix schenckii P25013 isolate from cutaneous-lymphatic sporotrichosis patient after 72 hrs by ATB Fungus 2 method
Sporothrix schenckii [5] = assay: Antifungal activity against Sporothrix schenckii PGAC0016 isolate from cutaneous-lymphatic sporotrichosis patient after 72 hrs by Sensititre YeastOne method
Sporothrix schenckii [6] = assay: Antifungal activity against Sporothrix schenckii P24223 isolate from cutaneous-lymphatic sporotrichosis patient after 72 hrs by Sensititre YeastOne method
Sporothrix schenckii [7] = assay: Antifungal activity against Sporothrix schenckii SSA29 isolate from cutaneous-lymphatic sporotrichosis patient after 72 hrs by modified NCCLS M38-A method
Sporothrix schenckii [8] = assay: Antifungal activity against Sporothrix schenckii P30915 isolate from cutaneous-lymphatic sporotrichosis patient after 72 hrs by Sensititre YeastOne method
Sporothrix schenckii [9] = assay: Antifungal activity against Sporothrix schenckii P1621 isolate from cutaneous-lymphatic sporotrichosis patient after 72 hrs by Sensititre YeastOne method
Sporothrix schenckii [10] = assay: Antifungal activity against Sporothrix schenckii PSCC1 isolate from cutaneous-lymphatic sporotrichosis patient after 72 hrs by modified NCCLS M38-A method
Sporothrix schenckii [11] = assay: Antifungal activity against Sporothrix schenckii isolate from cutaneous-lymphatic sporotrichosis patient after 72 hrs by modified NCCLS M38-A method
Sporothrix schenckii [12] = assay: Antifungal activity against Sporothrix schenckii P24223 isolate from cutaneous-lymphatic sporotrichosis patient after 72 hrs by modified NCCLS M38-A method
Sporothrix schenckii [13] = assay: Antifungal activity against Sporothrix schenckii P3287 isolate from cutaneous-lymphatic sporotrichosis patient after 72 hrs by modified NCCLS M38-A method
Sporothrix schenckii [14] = assay: Antifungal activity against Sporothrix schenckii P30915 isolate from cutaneous-lymphatic sporotrichosis patient after 72 hrs by ATB Fungus 2 method
Sporothrix schenckii [15] = assay: Antifungal activity against Sporothrix schenckii PGAC0016 isolate from cutaneous-lymphatic sporotrichosis patient after 72 hrs by modified NCCLS M38-A method
Sporothrix schenckii [16] = assay: Antifungal activity against Sporothrix schenckii P1621 isolate from cutaneous-lymphatic sporotrichosis patient after 72 hrs by modified NCCLS M38-A method
Sporothrix schenckii [17] = assay: Antifungal activity against Sporothrix schenckii PSCC1 isolate from cutaneous-lymphatic sporotrichosis patient after 72 hrs by Sensititre YeastOne method
Sporothrix schenckii [18] = assay: Antifungal activity against Sporothrix schenckii P25013 isolate from cutaneous-lymphatic sporotrichosis patient after 72 hrs by Sensititre YeastOne method
Sporothrix schenckii [19] = assay: Antifungal activity against Sporothrix schenckii P14036 isolate from cutaneous-lymphatic sporotrichosis patient after 72 hrs by modified NCCLS M38-A method
Sporothrix schenckii [20] = assay: Antifungal activity against Sporothrix schenckii MRSS4 isolate from cutaneous-lymphatic sporotrichosis patient after 72 hrs by modified NCCLS M38-A method
Sporothrix schenckii [21] = assay: Antifungal activity against Sporothrix schenckii P14954 isolate from cutaneous-lymphatic sporotrichosis patient after 72 hrs by modified NCCLS M38-A method
Sporothrix schenckii [22] = assay: Antifungal activity against Sporothrix schenckii P20825 isolate from cutaneous-lymphatic sporotrichosis patient after 72 hrs by ATB Fungus 2 method
Sporothrix schenckii [23] = assay: Antifungal activity against Sporothrix schenckii PSCC1 isolate from cutaneous-lymphatic sporotrichosis patient after 72 hrs by ATB Fungus 2 method
Sporothrix schenckii [24] = assay: Antifungal activity against Sporothrix schenckii PJRC002 isolate from cutaneous-lymphatic sporotrichosis patient after 72 hrs by ATB Fungus 2 method
Sporothrix schenckii [25] = assay: Antifungal activity against Sporothrix schenckii P24223 isolate from cutaneous-lymphatic sporotrichosis patient after 72 hrs by ATB Fungus 2 method
Sporothrix schenckii [26] = assay: Antifungal activity against Sporothrix schenckii P30019 isolate from cutaneous-lymphatic sporotrichosis patient after 72 hrs by modified NCCLS M38-A method
Sporothrix schenckii [27] = assay: Antifungal activity against Sporothrix schenckii P10012 isolate from cutaneous-lymphatic sporotrichosis patient after 72 hrs by modified NCCLS M38-A method
Sporothrix schenckii [28] = assay: Antifungal activity against Sporothrix schenckii SSA29 isolate from cutaneous-lymphatic sporotrichosis patient after 72 hrs by ATB Fungus 2 method
Sporothrix schenckii [29] = assay: Antifungal activity against Sporothrix schenckii P0019 isolate from cutaneous-lymphatic sporotrichosis patient after 72 hrs by Sensititre YeastOne method
Sporothrix schenckii [30] = assay: Antifungal activity against Sporothrix schenckii MRSS4 isolate from cutaneous-lymphatic sporotrichosis patient after 72 hrs by Sensititre YeastOne method
Sporothrix schenckii [31] = assay: Antifungal activity against Sporothrix schenckii isolate from cutaneous-lymphatic sporotrichosis patient after 72 hrs by Sensititre YeastOne method
Sporothrix schenckii [32] = assay: Antifungal activity against Sporothrix schenckii PSSA81 isolate from cutaneous-lymphatic sporotrichosis patient after 72 hrs by Sensititre YeastOne method
Sporothrix schenckii [33] = assay: Antifungal activity against Sporothrix schenckii P30915 isolate from cutaneous-lymphatic sporotrichosis patient after 72 hrs by modified NCCLS M38-A method
Sporothrix schenckii [34] = assay: Antifungal activity against Sporothrix schenckii MRSS4 isolate from cutaneous-lymphatic sporotrichosis patient after 72 hrs by ATB Fungus 2 method
Sporothrix schenckii [35] = assay: Antifungal activity against Sporothrix schenckii P24255 isolate from cutaneous-lymphatic sporotrichosis patient after 72 hrs by modified NCCLS M38-A method
Sporothrix schenckii [36] = assay: Antifungal activity against Sporothrix schenckii P30019 isolate from cutaneous-lymphatic sporotrichosis patient after 72 hrs by ATB Fungus 2 method
Sporothrix schenckii [37] = assay: Antifungal activity against Sporothrix schenckii P26187 isolate from cutaneous-lymphatic sporotrichosis patient after 72 hrs by Sensititre YeastOne method
Sporothrix schenckii [38] = assay: Antifungal activity against Sporothrix schenckii P26187 isolate from cutaneous-lymphatic sporotrichosis patient after 72 hrs by ATB Fungus 2 method
Sporothrix schenckii [39] = assay: Antifungal activity against Sporothrix schenckii P1621 isolate from cutaneous-lymphatic sporotrichosis patient after 72 hrs by ATB Fungus 2 method
Pichia kudriavzevii = assay: Antifungal activity against Candida krusei ATCC 6258 […] after 72 hrs by ATB Fungus 2 method; conditions: ATCC 6258, 72 h
Sporothrix schenckii [40] = assay: Antifungal activity against Sporothrix schenckii PJRC002 isolate from cutaneous-lymphatic sporotrichosis patient after 72 hrs by Sensititre YeastOne method
Sporothrix schenckii [41] = assay: Antifungal activity against Sporothrix schenckii P0019 isolate from cutaneous-lymphatic sporotrichosis patient after 72 hrs by ATB Fungus 2 method
Candida parapsilosis = assay: Antifungal activity against Candida parapsilosis ATCC 22019 […] after 72 hrs by modified NCCLS M38-A method; conditions: Lodderomyces parapsilosis, ATCC 22019, 72 h
Sporothrix schenckii [42] = assay: Antifungal activity against Sporothrix schenckii PSSA81 isolate from cutaneous-lymphatic sporotrichosis patient after 72 hrs by ATB Fungus 2 method
Sporothrix schenckii [43] = assay: Antifungal activity against Sporothrix schenckii PSSA81 isolate from cutaneous-lymphatic sporotrichosis patient after 72 hrs by modified NCCLS M38-A method

C[C@@H]1[C@H](O)[C@@H](C)/C=C/C=C/C=C/C=C/C=C/C=C/C=C/[C@H](O[C@@H]2O[C@H](C)[C@@H](O)[C@H](N)[C@@H]2O)C[C@@H]2O[C@](O)(C[C@@H](O)C[C@@H](O)[C@H](O)CC[C@@H](O)C[C@@H](O)CC(=O)O[C@H]1C)C[C@H](O)[C@H]2C(=O)O [AMPHOTERICIN B]
2 µg/mL: MIC (Sporothrix schenckii [28]) | MIC (Sporothrix schenckii [35])
> 116 µg/mL: MIC90 (Sporothrix schenckii [11])
4 µg/mL: MIC (Sporothrix schenckii [34]) | MIC (Sporothrix schenckii [38]) | MIC (Sporothrix schenckii [42])
0.06 µg/mL: MIC (Sporothrix schenckii [20]) | MIC (Sporothrix schenckii [27]) | MIC (Sporothrix schenckii [32])
0.125 µg/mL: MIC (Sporothrix schenckii [5]) | MIC (Sporothrix schenckii [16])
0.5 µg/mL: MIC (Sporothrix schenckii [6]) | MIC (Sporothrix schenckii [8]) | MIC (Sporothrix schenckii [9]) | MIC (Sporothrix schenckii [12]) | MIC (Sporothrix schenckii [30]) | MIC50 (Sporothrix schenckii [31]) | MIC (Sporothrix schenckii [37]) | MIC (Candida parapsilosis)
> 16 µg/mL: MIC (Sporothrix schenckii [2]) | MIC (Sporothrix schenckii [7]) | MIC (Sporothrix schenckii [13]) | MIC (Sporothrix schenckii [19])
1 µg/mL: MIC (Sporothrix schenckii [3]) | MIC (Sporothrix schenckii [4]) | MIC50 (Sporothrix schenckii [11]) | MIC (Sporothrix schenckii [18]) | MIC (Sporothrix schenckii [22]) | MIC (Sporothrix schenckii [24]) | MIC (Sporothrix schenckii [26]) | MIC90 (Sporothrix schenckii [31]) | MIC (Sporothrix schenckii [36]) | MIC (Sporothrix schenckii [40]) | MIC (Sporothrix schenckii [43])
0.25 µg/mL: MIC (Sporothrix schenckii [10]) | MIC (Sporothrix schenckii [15]) | MIC (Sporothrix schenckii [17]) | MIC (Sporothrix schenckii [21]) | MIC (Sporothrix schenckii [29]) | MIC (Sporothrix schenckii [33])
≤ 0.5 µg/mL: MIC (Sporothrix schenckii [1]) | MIC (Sporothrix schenckii [14]) | MIC (Sporothrix schenckii [23]) | MIC (Sporothrix schenckii [25]) | MIC (Sporothrix schenckii [39]) | MIC (Pichia kudriavzevii) | MIC (Sporothrix schenckii [41])
